Data taken from ChEMBL document CHEMBL5634192, “Transforming Therapeutic Approaches with PROTAC Technology: New Targets and Potentials” (ACS Med Chem Lett, 2024).

Key:
[1] = biological target: T1, von Hippel-Lindau disease tumor suppressor/Interleukin-1 receptor-associated kinase 4 (Homo sapiens, UniProt Q9NWZ3+P40337); experiment: PROTAC activity at VHL E3 ligase/IRAK4 in human PBMC cells assessed as induction of degradation of IRAK4 incubated overnight by ELISA method relative to control; assay type: cell-based
Target sequence in this assay (P40337 whole entry, looked up): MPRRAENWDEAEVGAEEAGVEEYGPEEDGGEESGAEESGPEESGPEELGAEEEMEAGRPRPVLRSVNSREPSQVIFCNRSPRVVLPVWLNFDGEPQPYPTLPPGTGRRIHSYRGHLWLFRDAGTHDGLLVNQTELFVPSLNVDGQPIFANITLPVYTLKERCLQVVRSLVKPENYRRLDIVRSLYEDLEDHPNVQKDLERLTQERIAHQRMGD
Target sequence in this assay (Q9NWZ3 whole entry, looked up): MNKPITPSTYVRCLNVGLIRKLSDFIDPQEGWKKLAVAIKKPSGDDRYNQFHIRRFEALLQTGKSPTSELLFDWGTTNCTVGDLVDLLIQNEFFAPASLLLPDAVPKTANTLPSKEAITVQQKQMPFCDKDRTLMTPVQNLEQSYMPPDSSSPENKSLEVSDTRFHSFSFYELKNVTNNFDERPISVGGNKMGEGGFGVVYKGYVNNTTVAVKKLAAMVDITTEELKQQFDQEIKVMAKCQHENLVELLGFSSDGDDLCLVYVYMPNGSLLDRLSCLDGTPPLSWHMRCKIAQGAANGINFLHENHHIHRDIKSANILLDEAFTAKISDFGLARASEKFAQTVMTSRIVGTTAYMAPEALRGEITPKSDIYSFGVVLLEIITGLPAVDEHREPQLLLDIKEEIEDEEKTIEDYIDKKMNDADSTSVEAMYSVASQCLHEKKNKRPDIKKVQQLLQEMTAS

[2] = biological target: T1, von Hippel-Lindau disease tumor suppressor/Interleukin-1 receptor-associated kinase 4; experiment: PROTAC activity at VHL E3 ligase/IRAK4 in human PBMC cells assessed as induction of degradation of IRAK4 incubated overnight by ELISA method; assay type: cell-based

Structure (SMILES) | Emax [1] [%] | DC50 [2] [nM] | EC90 [2] [nM]
CC(C)Oc1cc2c(cc1NC(=O)c1cnn3cccnc13)CN(C1CCN(CC3CCN(c4ccc(C5CCC(=O)NC5=O)cn4)CC3)CC1)C2=O (centres undefined) | > 90 | < 1 | < 10
O=C1CCC(c2ccc(N3CC(F)(CN4CCC(n5cc6cc(NC(=O)c7cnn8cccnc78)c(OCC7CC7)cc6n5)CC4)C3)cc2F)C(=O)N1 (centres undefined) | > 90 | < 1 | < 10
CC(C)Oc1cc2c(cc1NC(=O)c1cnn3cccnc13)CN(C1CCN(CC3CCN(c4ccc(C5CCC(=O)NC5=O)c(F)c4)CC3)CC1)C2=O (centres undefined) | > 90 | < 1 | < 10
O=C1CCC(c2ccc(N3CCC4(CC3)CC(CN3CCC(n5cc6cc(NC(=O)c7cnn8cccnc78)c(OCC7CC7)cc6n5)CC3)C4)cc2F)C(=O)N1 (centres undefined) | > 90 | 1 | < 10
O=C1CCC(c2ccc(N3CCC4(CCC(CN5CCC(n6cc7cc(NC(=O)c8cnn9cccnc89)c(OCC8CC8)cc7n6)CC5)CC4)CC3)cc2F)C(=O)N1 (centres undefined) | > 90 | < 1 | < 10
O=C1CCC(c2ccc(N3CC(F)(CN4CCC(n5cc6cc(NC(=O)c7cnn8cccnc78)c(N7CCC(N8CCC8)CC7)cc6n5)CC4)C3)cc2F)C(=O)N1 (centres undefined) | > 90 | < 1 | < 10
CC(C)Oc1nc2c(cc1NC(=O)c1cnn3cccnc13)CN(C1CCN(CC3CCN(c4ccc(C5CCC(=O)NC5=O)c(F)c4)CC3)CC1)C2=O (centres undefined) | > 90 | < 1 | < 10
CC(C)Oc1cc2c(cc1NC(=O)c1cnn3cccnc13)CN(C1CCN(CC3CCN(c4ccc(C5CCC(=O)NC5=O)cc4)CC3)CC1)C2=O (centres undefined) | > 90 | 1 | < 10
